Molecular target: EGFR (UniProt P00533)
Experiment: Inhibition of EGFR Kinase Activity

Chain of EGFR (P00533 whole entry, looked up): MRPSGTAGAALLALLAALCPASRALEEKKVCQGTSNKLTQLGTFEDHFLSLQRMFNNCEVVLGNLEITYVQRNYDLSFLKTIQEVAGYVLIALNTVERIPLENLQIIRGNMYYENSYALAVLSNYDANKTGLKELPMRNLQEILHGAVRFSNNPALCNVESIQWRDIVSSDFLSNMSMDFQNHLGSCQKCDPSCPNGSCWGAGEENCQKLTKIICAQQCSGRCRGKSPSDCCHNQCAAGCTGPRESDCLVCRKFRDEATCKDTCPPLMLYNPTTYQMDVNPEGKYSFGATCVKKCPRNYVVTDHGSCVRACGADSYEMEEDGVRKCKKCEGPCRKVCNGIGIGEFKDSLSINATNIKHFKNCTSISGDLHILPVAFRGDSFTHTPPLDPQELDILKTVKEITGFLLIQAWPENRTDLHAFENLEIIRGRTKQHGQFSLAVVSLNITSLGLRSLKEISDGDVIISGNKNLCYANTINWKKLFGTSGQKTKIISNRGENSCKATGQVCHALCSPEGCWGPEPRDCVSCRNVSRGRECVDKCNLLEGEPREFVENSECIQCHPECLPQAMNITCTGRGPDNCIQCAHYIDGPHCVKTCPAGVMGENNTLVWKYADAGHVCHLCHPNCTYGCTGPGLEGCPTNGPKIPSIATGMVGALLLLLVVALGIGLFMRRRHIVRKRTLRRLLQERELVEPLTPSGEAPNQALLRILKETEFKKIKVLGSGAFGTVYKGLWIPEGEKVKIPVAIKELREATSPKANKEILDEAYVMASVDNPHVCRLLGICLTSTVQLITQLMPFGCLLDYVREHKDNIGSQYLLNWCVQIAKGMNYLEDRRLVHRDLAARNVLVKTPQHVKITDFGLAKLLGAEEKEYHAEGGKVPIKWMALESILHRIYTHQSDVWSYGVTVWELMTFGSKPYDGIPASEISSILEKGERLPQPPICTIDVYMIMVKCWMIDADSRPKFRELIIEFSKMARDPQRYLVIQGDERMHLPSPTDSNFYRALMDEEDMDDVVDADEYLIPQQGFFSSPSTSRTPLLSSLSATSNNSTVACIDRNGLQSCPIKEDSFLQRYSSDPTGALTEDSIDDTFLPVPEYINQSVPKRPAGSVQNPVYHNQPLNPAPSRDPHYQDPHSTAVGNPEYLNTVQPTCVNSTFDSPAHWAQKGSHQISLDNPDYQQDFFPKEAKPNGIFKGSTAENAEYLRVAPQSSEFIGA

| SMILES | IC50 [µM] |
| --- | --- |
| CC#CC(=O)Nc1cccc(Nc2ncnc(Nc3cc(Cl)cc4ccccc34)n2)c1 | < 50 |
| C=CCN(c1cccc(Cl)c1)c1ncnc(Nc2cccc(NC(=O)C#CC)c2)n1 | < 50 |
| C=CC(=O)Nc1cccc(Nc2ncnc(N(C)c3ccc4c(cnn4Cc4ccccn4)c3)n2)c1 | < 50 |
| C=C/C=C/C(=O)Nc1cccc(Nc2ncnc(NC3CC3c3ccc(Cl)cc3)n2)c1 (configuration not stated) | < 50 |
| C=CC(=O)Nc1ccc(Nc2ncnc(N(CC)c3cc(OC)c(OC)c(OCCN4CCOCC4)c3)n2)cc1 | < 50 |
| C=CC(=O)Nc1cccc(Nc2ncnc(Nc3ccc4c(cnn4Cc4cccc(F)c4)c3)n2)c1 | < 50 |
| C=CC(=O)Nc1ccc(Nc2ncnc(N(CC)c3ccc(OCCC)c(OCCC)c3)n2)cc1 | < 50 |
| C=CC(=O)Nc1cccc(Nc2ncnc(Nc3cc(OC)c(OC)c(OCCN4CCOCC4)c3)n2)c1 | < 50 |
| C=CC(=O)Nc1ccc(Nc2ncnc(N(CC)n3c(=O)n(C(=O)C(C)(C)C)c4ccccc43)n2)cc1 | < 50 |
| C=CCN(c1ccc(OC)c(OCCOC)c1)c1ncnc(Nc2ccc(NC(=O)C=C)cc2)n1 | < 50 |
| C=CC(=O)Nc1cccc(Nc2ncnc(N(CC)c3cccc(S(=O)(=O)c4ccc([N+](=O)[O-])cc4)c3)n2)c1 | < 50 |
| C=CC(=O)Nc1cccc(Nc2ncnc(N(CC)c3ccc(OCCO)cc3)n2)c1 | < 50 |
| C=CC(=O)Nc1ccc(Nc2ncnc(N(C)c3cccc(S(=O)(=O)c4ccc([N+](=O)[O-])cc4)c3)n2)cc1 | < 50 |
| C=CC(=O)Nc1ccc(Nc2ncnc(Nc3ccc(OCCO)cc3)n2)cc1 | < 50 |
| C=CC(=O)Nc1ccc(Nc2ncnc(NN3CCCc4ccc(C(F)(F)F)cc43)n2)cc1 | < 50 |
| CC#CC(=O)Nc1cccc(Nc2ncnc(N(C)C3CC3c3ccccc3)n2)c1 (configuration not stated) | < 50 |
| C=CC(=O)Nc1cccc(Nc2ncnc(NN3CCCc4ccc(Cl)cc43)n2)c1 | < 50 |
| C=CCC(=O)Nc1cccc(Nc2ncnc(Nc3cccc(Cl)c3)n2)c1 | < 50 |
| C=CCN(c1cccc(Cl)c1)c1ncnc(Nc2cccc(NC(=O)C=C)c2)n1 | < 50 |
| C=CCC(=O)Nc1cccc(Nc2ncnc(Nc3ccc4NN(=Cc4c3)Cc5ccccn5)n2)c1 | < 50 |
| C=CC(=O)Nc1cc(Nc2ncnc(N(C)c3ccc4c(cnn4Cc4ccccc4)c3)n2)ccc1OC | < 50 |
| C=CC(=O)Nc1cc(Nc2ncnc(N(C)c3ccc4c(ccn4Cc4ccccc4)c3)n2)ccc1OCCCN1CCOCC1 | < 50 |
| C=CC(=O)Nc1cccc(Nc2ncnc(N(C)c3cc(OC)c(OC)c(OCCN4CCOCC4)c3)n2)c1 | < 50 |
| C=CCN(c1ccc(C(=O)OC)cc1)c1ncnc(Nc2cccc(NC(=O)C#CC)c2)n1 | < 50 |

| SMILES | IC50 [µM] |
| --- | --- |
| C=CC(=O)N(CCCN1CCOCC1)c1cccc(Nc2ncnc(Nc3ccc(OCCO)cc3)n2)c1 | < 50 |
| C=CC(=O)Nc1cccc(Nc2ncnc(N(CC)c3cccc(Cl)c3)n2)c1 | < 50 |
| C=CCN(c1ccc(F)c(Cl)c1)c1ncnc(Nc2ccc(NC(=O)C=C)cc2)n1 | < 50 |
| C=CCN(c1cccc(S(=O)(=O)c2ccc([N+](=O)[O-])cc2)c1)c1ncnc(Nc2cccc(NC(=O)C=C)c2)n1 | < 50 |
| C=CC(=O)Nc1ccc(Nc2ncnc(N(C)c3cc(OC)c(OC)c(OCCN4CCOCC4)c3)n2)cc1 | < 50 |
| C=CC(=O)Nc1ccc(Nc2ncnc(N(C)c3cccc(C(N)=O)c3)n2)cc1 | < 50 |
| C=CC(=O)Nc1ccc(Nc2ncnc(N(CC)c3ccc(OC)c(OCCOC)c3)n2)cc1 | < 50 |
| C=CC(=O)Nc1cc(Nc2ncnc(Nc3ccc4c(cnn4Cc4ccccc4)c3)n2)ccc1OC | < 50 |
| CC#CC(=O)Nc1cccc(Nc2ncnc(n2)N(CC=C)c3ccc4NN(=Cc4c3)Cc5ccccn5)c1 | < 50 |
| C=CC(=O)Nc1cccc(Nc2ncnc(Nn3c(=O)n(C(=O)C(C)(C)C)c4ccccc43)n2)c1 | < 50 |
| C=CC(=O)Nc1cccc(Nc2ncnc(N(C)c3cccc(C(N)=O)c3)n2)c1 | < 50 |
| C=CC(=O)Nc1cc(Nc2ncnc(Nc3ccc4c(cnn4Cc4ccccc4)c3)n2)ccc1OCCCC1CCN(C)CC1 | < 50 |
| C=CC(=O)Nc1cc(Nc2ncnc(Nc3cccc(Cl)c3)n2)ccc1OCCCC1CCN(C)CC1 | < 50 |
| CC#CC(=O)Nc1cccc(Nc2ncnc(N(CC)n3c(=O)n(C(=O)C(C)(C)C)c4ccccc43)n2)c1 | < 50 |
| C=CC(=O)Nc1cccc(Nc2ncnc(N(C)c3ccc(F)c(Cl)c3)n2)c1 | < 50 |
| C=CC(=O)N(CCCN1CCOCC1)c1cccc(Nc2ncnc(NC3CC3c3ccc(Cl)cc3)n2)c1 (configuration not stated) | < 50 |
| C=CC(=O)Nc1cccc(Nc2ncnc(N(CC)n3c(=O)[nH]c4ccccc43)n2)c1 | < 50 |
| C=CC(=O)Nc1ccc(Nc2ncnc(N(C)c3ccc(OCc4ccccc4)cc3)n2)cc1 | < 50 |
| CC#CC(=O)Nc1cccc(Nc2ncnc(N(C)n3c(=O)n(C(=O)C(C)(C)C)c4ccccc43)n2)c1 | < 50 |
| CC#CC(=O)Nc1cc(Nc2ncnc(N(C)c3ccc4c(cnn4Cc4ccccc4)c3)n2)ccc1OCCCC1CCN(C)CC1 | < 50 |
| C=CCN(c1cc(OC)c(OC)c(OCCN2CCOCC2)c1)c1ncnc(Nc2ccc(NC(=O)C=C)cc2)n1 | < 50 |
| C=CC(=O)Nc1cccc(Nc2ncnc(N(C)c3cccc(Cl)c3)n2)c1 | < 50 |
| C=CCN(c1cccc(C)c1)c1ncnc(Nc2cccc(NC(=O)C#CC)c2)n1 | < 50 |

Source: the Kinase Knowledgebase extract (Sharma et al. 2016)
